Source: US9388140B2, “Substituted benzimidazoles” (priority 2011, dated 2016)
Read-outs that look alike come from different tables or passages of the source.

Biological target: human kinase Mps-1 (Homo sapiens (Human), UniProt P33981)
Test: Mps-1 kinase assay (TR-FRET)
Type: biochemical
Summary of the method: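 TR-FRET signal between a Europium anti-phospho-Ser/Thr antibody and streptavidin-XLent reported phosphorylation of a biotinylated peptide by GST-tagged full-length Mps-1. Enzyme was near 1 nM final, chosen per lot for linearity.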

[1] = N-terminally GST-tagged human full length recombinant Mps-1, 10 μM ATP, 1 μM biotinylated peptide substrate, read-out: Mps1 IC50

Sequence of human kinase Mps-1 (P33981 whole entry): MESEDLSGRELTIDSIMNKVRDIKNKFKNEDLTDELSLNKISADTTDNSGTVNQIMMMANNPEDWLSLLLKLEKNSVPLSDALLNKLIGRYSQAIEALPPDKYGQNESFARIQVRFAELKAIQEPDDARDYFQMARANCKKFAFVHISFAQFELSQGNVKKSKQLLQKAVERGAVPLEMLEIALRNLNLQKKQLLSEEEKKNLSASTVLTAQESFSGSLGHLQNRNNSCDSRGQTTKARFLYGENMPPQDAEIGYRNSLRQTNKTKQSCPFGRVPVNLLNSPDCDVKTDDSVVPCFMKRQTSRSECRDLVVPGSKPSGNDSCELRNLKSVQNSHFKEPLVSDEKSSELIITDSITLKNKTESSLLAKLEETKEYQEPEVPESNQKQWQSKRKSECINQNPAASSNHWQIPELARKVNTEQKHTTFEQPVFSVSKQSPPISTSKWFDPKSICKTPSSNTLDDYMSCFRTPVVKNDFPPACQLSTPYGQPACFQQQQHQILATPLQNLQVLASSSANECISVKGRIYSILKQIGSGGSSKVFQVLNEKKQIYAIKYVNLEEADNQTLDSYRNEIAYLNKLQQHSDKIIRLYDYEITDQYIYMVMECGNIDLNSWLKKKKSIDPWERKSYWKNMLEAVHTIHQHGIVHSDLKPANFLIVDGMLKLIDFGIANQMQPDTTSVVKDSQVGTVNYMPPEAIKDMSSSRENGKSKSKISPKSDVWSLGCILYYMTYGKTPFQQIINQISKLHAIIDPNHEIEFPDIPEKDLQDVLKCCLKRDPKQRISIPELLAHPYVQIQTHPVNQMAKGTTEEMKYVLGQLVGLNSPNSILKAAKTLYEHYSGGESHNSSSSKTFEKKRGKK

Row | Compound | IC50 [1] | IC50
1 | Cc1cc(-n2cnc3c(NCCC(F)(F)F)cc(Oc4ccc(S(C)(=O)=O)cc4)cc32)ccc1C(=O)NC1CC1 [Example 74, N-cyclopropyl-2-methyl-4-{6-[4-(methylsulfonyl)phenoxy]-4-[(3,3,3-trifluoropropyl)amino]-1H-benzimidazol-1-yl}benzamide] | 6.4 nM | 
2 | Cc1ccc(F)cc1Oc1cc(NCCC(F)(F)F)c2ncn(-c3ccc(C(=O)NC4CC4)c(C)c3)c2c1 [Example 107, N-cyclopropyl-4-{6-(5-fluoro-2-methylphenoxy)-4-[(3,3,3-trifluoropropyl)amino]-1H-benzimidazol-1-yl}-2-methylbenzamide] | 5.3 nM | 
3 | CCNC(=O)c1ccc(-n2cnc3c(NCCC(F)(F)F)cc(-c4ccnn4C)cc32)cc1C [Example 31, N-ethyl-2-methyl-4-{6-(1-methyl-1H-pyrazol-5-yl)-4-[(3,3,3-trifluoropropyl)amino]-1H-benzimidazol-1-yl}benzamide] | 33 nM | 
4 | Cc1cc(-n2cnc3c(NCCC(F)(F)F)cc(Oc4cccc(F)c4)cc32)ccc1C(=O)NC1CC1 [Example 4, N-cyclopropyl-4-{6-(3-fluorophenoxy)-4-[(3,3,3-trifluoropropyl)amino]-1H-benzimidazol-1-yl}-2-methylbenzamide] | 0.7 nM | 
5 | COc1ccc(Oc2cc(NCCC(F)(F)F)c3ncn(-c4ccc(C(=O)NC5CC5)cc4)c3c2)cc1F [Example 38, N-cyclopropyl-4-{6-(3-fluoro-4-methoxyphenoxy)-4-[(3,3,3-trifluoropropyl)amino]-1H-benzimidazol-1-yl}benzamide] | 0.4 nM | 
6 | COc1ccccc1C(=O)c1cc(NCCC(F)(F)F)c2ncn(-c3ccc(C(=O)NC4CC4)c(C)c3)c2c1 [Example 110, N-cyclopropyl-4-{6-(2-methoxybenzoyl)-4-[(3,3,3-trifluoropropyl)amino]-1H-benzimidazol-1-yl}-2-methylbenzamide] | 12 nM | 
7 | Cc1cc(-n2cnc3c(NCC4CCOCC4)cc(Oc4ccc(O)c(F)c4)cc32)ccc1C(=O)NC1CC1 [Example 114A, N-cyclopropyl-4-{6-(3-fluoro-4-hydroxyphenoxy)-4-[(tetrahydro-2H-pyran-4-ylmethyl)amino]-1H-benzimidazol-1-yl}-2-methylbenzamide] | 0.7 nM | 
8 | Cc1cc(-c2cc(NCCC(F)(F)F)c3ncn(-c4ccc(C(=O)NC5CC5)c(C)c4)c3c2)ccc1C(=O)NC1CC1 [Example 51, 4,4′-{4-[(3,3,3-Trifluoropropyl)amino]-1H-benzimidazole-1,6-diyl}bis(N-cyclopropyl-2-methylbenzamide)] | 0.9 nM | 
9 | CCNC(=O)c1ccc(-n2cnc3c(NCC4CCOCC4)cc(Oc4ccc(OC)c(SC)c4)cc32)cc1C [Example 113B, N-ethyl-4-{6-[4-methoxy-3-(methylsulfanyl)phenoxy]-4-[(tetrahydro-2H-pyran-4-ylmethyl)amino]-1H-benzimidazol-1-yl}-2-methylbenzamide] | 54 nM | 
10 | Cc1cc(-n2cnc3c(NCCC(F)(F)F)cc(Oc4cccc(F)c4F)cc32)ccc1C(=O)NC1CC1 [Example 14, N-cyclopropyl-4-{6-(2,3-difluorophenoxy)-4-[(3,3,3-trifluoropropyl)amino]-1H-benzimidazol-1-yl}-2-methylbenzamide] | 0.5 nM | 
11 | Cc1cc(-n2cnc3c(NCCC(F)(F)F)cc(Oc4ccc(OCc5ccccc5)cc4)cc32)ccc1C(=O)NC1CC1 [Example 45, 4-{6-[4-(Benzyloxy)phenoxy]-4-[(3,3,3-trifluoropropyl)amino]-1H-benzimidazol-1-yl}-N-cyclopropyl-2-methylbenzamide] | 6.7 nM | 
12 | Cc1cc(F)cc(Oc2cc(NCC3CCOCC3)c3ncn(-c4ccc(C(=O)NC5CC5)c(C)c4)c3c2)c1 [Example 15, N-cyclopropyl-4-{6-(3-fluoro-5-methylphenoxy)-4-[(tetrahydro-2H-pyran-4-ylmethyl)amino]-1H-benzimidazol-1-yl}-2-methylbenzamide] | 0.6 nM | 
13 | C=C(c1ccc(OC)c(F)c1)c1cc(NCCC(F)(F)F)c2ncn(-c3ccc(C(=O)NC4CC4)c(C)c3)c2c1 [Example 104, N-cyclopropyl-4-{6-[1-(3-fluoro-4-methoxyphenyl)vinyl]-4-[(3,3,3-trifluoropropyl)amino]-1H-benzimidazol-1-yl}-2-methylbenzamide] | 2.1 nM | 
14 | CNC(=O)c1ccc(-n2cnc3c(NCCC(F)(F)F)cc(Oc4cccc(F)c4O)cc32)cc1C [Example 92, 4-{6-(3-fluoro-2-hydroxyphenoxy)-4-[(3,3,3-trifluoropropyl)amino]-1H-benzimidazol-1-yl}-N,2-dimethylbenzamide] | 3 nM | 
15 | CCNC(=O)c1ccc(-n2cnc3c(NCCC(F)(F)F)cc(Oc4ccccc4OC)cc32)cc1C [Example 40, N-ethyl-4-{6-(2-methoxyphenoxy)-4-[(3,3,3-trifluoropropyl)amino]-1H-benzimidazol-1-yl}-2-methylbenzamide] | 58.2 nM | 
16 | Cc1ccc(F)cc1Nc1cc(NCC2CCOCC2)c2ncn(-c3ccc(C(=O)NC4CC4)c(C)c3)c2c1 [Example 19, N-cyclopropyl-4-{6-[(5-fluoro-2-methylphenyl)amino]-4-[(tetrahydro-2H-pyran-4-ylmethyl)amino]-1H-benzimidazol-1-yl}-2-methylbenzamide] | 1.2 nM | 
17 | Cc1ccc(F)cc1Oc1cc(NCC2CCOCC2)c2ncn(-c3ccc(C(=O)NC4CC4)c(C)c3)c2c1 [Example 16, N-cyclopropyl-4-{6-(5-fluoro-2-methylphenoxy)-4-[(tetrahydro-2H-pyran-4-ylmethyl)amino]-1H-benzimidazol-1-yl}-2-methylbenzamide] | 0.6 nM | 
18 | COc1ccc(Oc2cc(NCC3CCOCC3)c3ncn(-c4ccc(C(=O)NC5CC5)c(C)c4)c3c2)c(SC)c1 [Example 116B, N-cyclopropyl-4-{6-[4-methoxy-2-(methylsulfanyl)phenoxy]-4-[(tetrahydro-2H-pyran-4-ylmethyl)amino]-1H-benzimidazol-1-yl}-2-methylbenzamide] | 2.9 nM | 
19 | O=C(NC1CC1)c1ccc(-n2cnc3c(NCCC(F)(F)F)cc(Oc4ccccc4)cc32)cc1 [Example 37, N-cyclopropyl-4-{6-phenoxy-4-[(3,3,3-trifluoropropyl)amino]-1H-benzimidazol-1-yl}benzamide] |  | 0.5 nM
20 | CNC(=O)c1ccc(-c2cc(NCCC(F)(F)F)c3ncn(-c4ccc(C(=O)NC5CC5)c(C)c4)c3c2)cc1C [Example 52, 4-{1-[4-(Cyclopropylcarbamoyl)-3-methylphenyl]-4-[(3,3,3-trifluoropropyl)amino]-1H-benzimidazol-6-yl}-N,2-dimethylbenzamide] | 0.9 nM | 
21 | Cc1cc(-n2cnc3c(NCCC(F)(F)F)cc(Oc4ccc(Cl)c(F)c4)cc32)ccc1C(=O)NC1CC1 [Example 28, 4-{6-(4-Chloro-3-fluorophenoxy)-4-[(3,3,3-trifluoropropyl)amino]-1H-benzimidazol-1-yl}-N-cyclopropyl-2-methylbenzamide] | 3.1 nM | 
22 | Cc1cc(-n2cnc3c(NCC4CCOCC4)cc(Oc4ccc(O)cc4F)cc32)ccc1C(=O)NC1CC1 [Example 116A, N-cyclopropyl-4-{6-(2-fluoro-4-hydroxyphenoxy)-4-[(tetrahydro-2H-pyran-4-ylmethyl)amino]-1H-benzimidazol-1-yl}-2-methylbenzamide] | 1 nM | 
23 | CCNC(=O)c1ccc(-n2cnc3c(NCCC(F)(F)F)cc(Oc4cccc(F)c4O)cc32)cc1C [Example 93, N-ethyl-4-{6-(3-fluoro-2-hydroxyphenoxy)-4-[(3,3,3-trifluoropropyl)amino]-1H-benzimidazol-1-yl}-2-methylbenzamide] | 4.1 nM | 
24 | Cc1cc(F)cc(Oc2cc(NCCC(F)(F)F)c3ncn(-c4ccc(C(=O)NC5CC5)c(C)c4)c3c2)c1 [Example 26, N-cyclopropyl-4-{6-(3-fluoro-5-methylphenoxy)-4-[(3,3,3-trifluoropropyl)amino]-1H-benzimidazol-1-yl}-2-methylbenzamide] | 1.8 nM | 
25 | CNC(=O)c1ccc(-n2cnc3c(NCCC(F)(F)F)cc(Oc4cccc(F)c4OC)cc32)cc1C [Example 72, 4-{6-(3-fluoro-2-methoxyphenoxy)-4-[(3,3,3-trifluoropropyl)amino]-1H-benzimidazol-1-yl}-N,2-dimethylbenzamide] | 33 nM | 
26 | Cc1cc(-n2cnc3c(NCCC(F)(F)F)cc(Oc4ccc(N5CCOCC5)cc4)cc32)ccc1C(=O)NC1CC1 [Example 60, N-cyclopropyl-2-methyl-4-{6-[4-(morpholin-4-yl)phenoxy]-4-[(3,3,3-trifluoropropyl)amino]-1H-benzimidazol-1-yl}benzamide] | 11.5 nM | 
27 | Cc1cc(-n2cnc3c(NCCC(F)(F)F)cc(Oc4cccc(C(F)F)c4)cc32)ccc1C(=O)NC1CC1 [Example 109, N-cyclopropyl-4-{6-[3-(difluoromethyl)phenoxy]-4-[(3,3,3-trifluoropropyl)amino]-1H-benzimidazol-1-yl}-2-methylbenzamide] | 2.8 nM | 
28 | COc1ccc(Oc2cc(NCC3CCOCC3)c3ncn(-c4ccc(C(=O)NC5CC5)c(C)c4)c3c2)cc1F [Example 44, N-cyclopropyl-4-{6-(3-fluoro-4-methoxyphenoxy)-4-[(tetrahydro-2H-pyran-4-ylmethyl)amino]-1H-benzimidazol-1-yl}-2-methylbenzamide] | 0.7 nM | 
